Assay results published in patent US12239645B2, “Targeted dosing for the treatment of complement mediated disorders” (Achillion Pharmaceuticals, Inc., priority 2018, dated 2025).
Read-outs that look alike come from different tables or passages of the source.

Assays:
[1] = Multiple ascending dose (MAD) study: multiple-dose pharmacokinetics; format: in vivo, human; settings: for concentration at 144 h: Day 7, 0 hr post-dose (144 h); for concentration at 144 h / concentration at 324 h / concentration at 120 h / concentration at 132 h / concentration at 156 h / concentration at 168 h / concentration at 192 h / concentration at 288 h / concentration at 300 h / concentration at 312 h: read-out: Pre-dose (trough) plasma concentration, Mean; for concentration at 324 h: Day 14, 12 hr post-dose (324 h); for concentration at 120 h: Day 6, 0 hr post-dose (120 h); for concentration at 132 h: Day 6, 12 hr post-dose (132 h); for concentration at 156 h: Day 7, 12 hr post-dose (156 h); for concentration at 168 h: Day 8, 0 hr post-dose (168 h); for concentration at 192 h: Day 9, 0 hr post-dose (192 h); for concentration at 288 h: Day 13, 0 hr post-dose (288 h); for concentration at 300 h: Day 13, 12 hr post-dose (300 h); for concentration at 312 h: Day 14, 0 hr post-dose (312 h)
Description: A multiple ascending dose (MAD) study of Compound 1 with two additional single-dose cohorts was also completed. […] Secondary objectives included evaluation of the pharmacokinetic (PK) profile and the relationship between Compound 1 PK and pharmacodynamic (PD) characteristics, that is, the inhibition of complement alternative pathway (AP) activity (PK/PD). In the MAD study, multiple-dose pharmacokinetics and pharmacodynamics of Compound 1 were evaluated in four dose groups administered Compound 1 (40, 80, 120 and 200 mg BID) in the fasted state for 14-days (Table 3). Eight subjects received active drug in each group; eight subjects received placebo in the first dose group (40 mg) and two subjects received placebo in each of the other three dose groups. Two additional cohorts were administered Compound 1 at single doses of 240 mg (fasted subjects) and 120 mg (fed subjects) (Table 3). The two single-dose cohorts each comprised six subjects receiving active drug and two subjects receiving placebo. Plasma and serum samples for PK and PD assessment were collected on selected days prior to dosing (at local troughs), and on days 1, 7, and 14 at 0.5-hour to 2-hour intervals for more detailed assessment.

[2] = test system: complement alternative pathway (AP) activity; assay: Steady-state / PK-PD modeling of AP inhibition versus plasma concentration; design: species or system human
Description: Based on the ex vivo AP inhibition assay, a steady state model was prepared comparing the % inhibition of Ap based on drug plasma concentration. […] Therefore, Compound 1 is shown to be potent while still having improved safety margins that may allow for better dosing flexibility.

[3] = human, plasma, oral, 80 mg, 80 mg BID
[4] = human, plasma, oral, 120 mg, 120 mg BID
[5] = human, plasma, oral, 200 mg, 200 mg BID

`CC(=O)c1nn(CC(=O)N2[C@H](C(=O)Nc3nc(Br)ccc3C)C[C@@]3(C)C[C@@H]23)c2ccc(-c3cnc(C)nc3)cc12` [Compound 1, (1R,3S,5R)-2-(2-(3-acetyl-5-(2-methylpyrimidin-5-yl)-1H-indazol-1-yl)acetyl)-N-(6-bromo-3-methylpyridin-2-yl)-5-methyl-2-azabicyclo[3.1.0]hexane-3-carboxamide] showed a concentration at 144 h [1, 3] of 69.1 ng/mL, a concentration at 324 h [1, 3] of 42.5 ng/mL and a concentration at 12 hr ([1]; human, plasma, oral, 80 mg, 80 mg BID, all 12 hr (evening) troughs, read-out: Mean C(12), steady-state trough) of 45.9 ng/mL. The concentration at 12 h ([1]; human, plasma, oral, 120 mg BID, all 12 hr (evening) troughs, read-out: Mean C(12), steady-state trough) was ~80 ng/mL, the Tmax ([1]; human, plasma, oral, 120 mg, 120 mg BID × 14 Days, Day 1) was 2 h and the AUC(0-t) ([1]; human, plasma, oral, 120 mg, 120 mg BID × 14 Days, Day 1, read-out: AUC(0-12), Mean) was 1200 ng·h/mL. It also gave a Cmax ([1]; human, plasma, oral, 120 mg, 120 mg BID × 14 Days, Day 1, read-out: Cmax, Mean) of 353 ng/mL, a Tmax ([1]; human, plasma, oral, 120 mg, 120 mg BID × 14 Days, Day 7) of 1.75 h and an AUC(0-t) ([1]; human, plasma, oral, 120 mg, 120 mg BID × 14 Days, Day 7, read-out: AUC(0-12), Mean) of 3880 ng·h/mL. The AUC(0-t) ([1]; human, plasma, oral, 120 mg, 120 mg BID × 14 Days, Day 7, read-out: AUC(0-24), Mean) was 7750 ng·h/mL, the Cmax ([1]; human, plasma, oral, 120 mg, 120 mg BID × 14 Days, Day 7, read-out: Cmax, Mean) was 885 ng/mL and the Tmax ([1]; human, plasma, oral, 120 mg, 120 mg BID × 14 Days, Day 14) was 2.5 h. For the same compound, the AUC(0-t) ([1]; human, plasma, oral, 120 mg, 120 mg BID × 14 Days, Day 14, read-out: AUC(0-12), Mean) was 3990 ng·h/mL, the AUC(0-t) ([1]; human, plasma, oral, 120 mg, 120 mg BID × 14 Days, Day 14, read-out: AUC(0-24), Mean) was 7990 ng·h/mL and the Cmax ([1]; human, plasma, oral, 120 mg, 120 mg BID × 14 Days, Day 14, read-out: Cmax, Mean) was 887 ng/mL. The concentration at 120 h [1, 4] was 165 ng/mL, the concentration at 132 h [1, 4] was 90.6 ng/mL and the concentration at 144 h [1, 4] was 125 ng/mL. The concentration at 156 h [1, 4] was 67.2 ng/mL, the concentration at 168 h [1, 4] was 164 ng/mL and the concentration at 192 h [1, 4] was 156 ng/mL. The concentration at 288 h [1, 4] was 136 ng/mL, the concentration at 300 h [1, 4] was 88 ng/mL and the concentration at 312 h [1, 4] was 173 ng/mL. For the same compound, the concentration at 324 h [1, 4] was 76.6 ng/mL, the Cmax ([1]; human, plasma, oral, 120 mg, 120 mg BID, read-out: Cmax) was < 1000 ng/mL and the Tmax ([1]; human, plasma, oral, 200 mg, 200 mg BID × 14 Days, Day 1) was 1.63 h. The AUC(0-t) ([1]; human, plasma, oral, 200 mg, 200 mg BID × 14 Days, Day 1, read-out: AUC(0-12), Mean) was 1820 ng·h/mL, the Cmax ([1]; human, plasma, oral, 200 mg, 200 mg BID × 14 Days, Day 1, read-out: Cmax, Mean) was 440 ng/mL and the Tmax ([1]; human, plasma, oral, 200 mg, 200 mg BID × 14 Days, Day 7) was 2.06 h. For the same compound, the AUC(0-t) ([1]; human, plasma, oral, 200 mg, 200 mg BID × 14 Days, Day 7, read-out: AUC(0-12), Mean) was 9350 ng·h/mL, the AUC(0-t) ([1]; human, plasma, oral, 200 mg, 200 mg BID × 14 Days, Day 7, read-out: AUC(0-24), Mean) was 18700 ng·h/mL and the Cmax ([1]; human, plasma, oral, 200 mg, 200 mg BID × 14 Days, Day 7, read-out: Cmax, Mean) was 1870 ng/mL. The Tmax ([1]; human, plasma, oral, 200 mg, 200 mg BID × 14 Days, Day 14) was 1.81 h, the AUC(0-t) ([1]; human, plasma, oral, 200 mg, 200 mg BID × 14 Days, Day 14, read-out: AUC(0-12), Mean) was 8240 ng·h/mL and the AUC(0-t) ([1]; human, plasma, oral, 200 mg, 200 mg BID × 14 Days, Day 14, read-out: AUC(0-24), Mean) was 16500 ng·h/mL. It also gave a Cmax ([1]; human, plasma, oral, 200 mg, 200 mg BID × 14 Days, Day 14, read-out: Cmax, Mean) of 1630 ng/mL, a concentration at 120 h [1, 5] of 431 ng/mL and a concentration at 132 h [1, 5] of 241 ng/mL. It also gave a concentration at 144 h [1, 5] of 385 ng/mL, a concentration at 156 h [1, 5] of 241 ng/mL and a concentration at 168 h [1, 5] of 381 ng/mL. It also gave a concentration at 192 h [1, 5] of 377 ng/mL, a concentration at 288 h [1, 5] of 376 ng/mL and a concentration at 300 h [1, 5] of 272 ng/mL. It also gave a concentration at 312 h [1, 5] of 415 ng/mL, a concentration at 324 h [1, 5] of 235 ng/mL and a concentration at 12 hr ([1]; human, plasma, oral, 200 mg, 200 mg BID, all 12 hr (evening) troughs, read-out: Mean C(12), steady-state trough) of 247 ng/mL. The Cmax ([1]; human, plasma, oral, 200 mg, 200 mg BID, read-out: Cmax) was < 2000 ng/mL, the C0 at 0 h ([1]; human, plasma, oral, 40 mg BID, all 0 hr (morning) troughs, read-out: Mean C(0), steady-state trough) was 23.4 ng/mL and the C0 at 0 hr ([1]; human, plasma, oral, 80 mg BID, all 0 hr (morning) troughs, read-out: Mean C(0), steady-state trough) was 83.7 ng/mL. For the same compound, the C0 at 0 hr ([1]; human, plasma, oral, 120 mg BID, all 0 hr (morning) troughs, read-out: Mean C(0), steady-state trough) was 153 ng/mL, the C0 at 0 hr ([1]; human, plasma, oral, 200 mg BID, all 0 hr (morning) troughs, read-out: Mean C(0), steady-state trough) was 392 ng/mL and the diurnal metabolic pattern ([1]; humans, BID dosing, C(0) morning vs C(12) evening) was “exhibits a diurnal metabolic pattern”. For the same compound, the “inhibition of AP activity” value ([2]; at Ctrough of 65 ng/mL to 95 ng/mL) was “greater than 85%”, the AP inhibition ([2]; at Ctrough of about 88 ng/mL) was > 90% and the AP inhibition ([2]; at Ctrough of about 67-88 ng/mL) was “greater than 90%”. The “EC90 (plasma concentration providing about 90% AP activity inhibition)” value ([2]; modeling) was 0.067 to 0.088 µg/mL and the “IC90 of AP activity (Ctrough for 90% inhibition)” value ([2]; steady-state modeling from SAD ex vivo AP inhibition, FIG. 10) was “about 67 ng/mL”.
